Holding throughout (type): ADME, Microsome
A short description of series [1]: Half-life in human liver microsomes at 1 uM incubated for 60 mins followed by NADPH generating system addition and measured by LC-MS/MS analysis. On the technique in general: Microsomes from liver hold many membrane-bound enzymes, among them those of drug oxidation.
Series [2] is described as follows: Half-life in mouse liver microsomes at 1 uM incubated for 60 mins followed by NADPH generating system addition and measured by LC-MS/MS analysis.
Series [3] in a line: Clearance in human liver microsomes at 1 uM incubated for 60 mins followed by NADPH generating system addition and measured by LC-MS/MS analysis. As to conditions: read-out: CLH.
The nature of series [4]: Clearance in mouse liver microsomes at 1 uM incubated for 60 mins followed by NADPH generating system addition and measured by LC-MS/MS analysis. As to conditions: read-out: CLH.
Series [5] in a line: Metabolic stability in mouse liver microsomes at 1 uM assessed as compound remaining incubated for 60 mins followed by NADPH generating system addition and measured by LC-MS/MS analysis. To be noted: read-out: Stability.

Regarding `CCC[C@@H]1C[C@@H](NC(=O)c2ccc(C(F)(F)F)[nH]c2=O)c2cc(C)ccc2N1`, the figures for the half-life at 1 µM in series [1] and in series [2] were 1.37 h and 1.2 h, respectively. Besides, the results for the microsomal CLint at 1 µM in series [3] and in series [4] were 17 µL/min/mg and 19.2 µL/min/mg, respectively.
With `CCC[C@H]1C[C@@H](NC(=O)c2ccc(C(F)(F)F)[nH]c2=O)c2cc(C)ccc2N1`, the half-life (usually the time in which the quantity being followed falls by half) at 1 µM was 1.51 h in series [1] and 1.9 h in series [2]. The microsomal CLint at 1 µM in series [3] worked out at 15.3 µL/min/mg; in series [4] it was 12.1 µL/min/mg.
On to `Cc1ccc2c(c1)[C@H](O)CC[C@H]2NC(=O)c1ccc(C(F)(F)F)[nH]c1=O`, for which the remaining at 1 h, 1 µM in series [5] was 105%.
In the case of `CCC[C@H]1Oc2ccc(C)cc2[C@@H]1NC(=O)c1ccc(C(F)(F)F)[nH]c1=O`, the half-life at 1 µM in series [1] is 0.652 h; in series [2] it was 0.56 h. The results for the microsomal CLint at 1 µM in series [3] and in series [4] were 35.4 µL/min/mg and 41.2 µL/min/mg, respectively.
